In paper PMC5855875, “Teixobactin analogues reveal enduracididine to be non-essential for highly potent antibacterial activity and lipid II binding” (Chemical Science, 2017):
Converted amounts (≈) assume the structure as drawn. Bridge positions count the residues as written; N and C are the ends. Square brackets hold non-standard residues; d marks the D form. Peptide text beside a SMILES is read from it. d(aIle) = CC[C@H](C)[C@@H](N)C(=O)O; dNMeF = CN[C@H](Cc1ccccc1)C(=O)O

Assays:
[1] = test system: MRSA 2: MRSA DR 42412 (sputum); assay: microbe, parasite or virus in culture
Procedure: (§1) VIII. MIC testing (extended panel)
(§2) Bacterial cultures were grown overnight i n Mueller-Hinton Agar (MHA) plates and adjusted to a final concentration of 10 5 – 106 CFU/ml. 100 µl of inoculum in Meuller -Hinton broth (MHB) was mixed with equal volume of peptides (dissolved in MHB) at 2x their concentration in a 96 well plate. In parallel experiments, MIC values were determined in the media containing polysorbate 80 (0 .002%, v/v) to […]
(§3) prevent non-specific adsorption of the peptides to plastic surfaces. The final peptides concentrations […]
(§4) Positive and negative controls contained 200 µl of inoculum without any peptide dissolved in broth, respectively. The 96 well plates were then incubated at 37 °C for 24 h. […]
(§5) 80. Strain information: MRSA 1: MRSA ATCC 700699, MRSA 2: MRSA DR 42412 (sputum), MRSA
(§6) 3: MRSA DM21455 (eye). […] Staphylococcus aureus ATCC

[2] = 1H DOSY at each titration point
[3] = test system: M. smegmatis ATCC 607; assay: microbe, parasite or virus in culture; details: ATCC 607, 72 h
Procedure: were grown in Mueller Hinton broth (Oxoid) in triplicate. All incubations were at 37°C. Dilutions were carried out in triplicate. 100 µl of autoclaved Mueller Hinton broth was added to wells 2-12 in a 96-well plate. 200 µl of the peptide was added to well one at a concentration of 256 µg/mL. 100µl of peptide in well one was taken up and pipetted into well two. The mixture was then mixed via pipetting before 100µl was taken up and pipetted into well three. This process was repeated up to well 11. Once […]
peptide present. Thus, the concentrations (in µg/mL) were: 256, 128, 64, 32, 16, 8, 4, 2, 1, 0.5, 0.25 and no peptide present. Each well was then inoculated with 100µl of bacteria that had been diluted to an […]
This was repeated three times. The 96-well plates were then incubated at 37°C for 24 hours. The MIC was determined to be the lowest concentration at which there was no growth visible. […]
was repeated at an altered initial concentration of 64 µg/ml. Therefore, the new concentrations for MIC […]
Middlebrook 7H9 broth (SIGMA) supplemented to 5% Middlebrook ADC (SIGMA) growth

[4] = test system: MRSA 1: MRSA ATCC 700699; assay: microbe, parasite or virus in culture
Procedure: as §1, §2, §3
(§7) Positive and negative controls contained 200 µl of inoculum without any peptide dissolved in broth, respectively. The 96 well plates were then incubated at 37 °C for 24 h.
(§8) All the experiments were performed in two independent duplicates and the MIC was determined as the […]
(§9) Minimum bactericidal concentration
(§10) The lowest concentration in which no visible colonies could be detected was taken as the MBC.
as §5, §6

[5] = test system: Staphylococcus aureus ATCC 29213; assay: microbe, parasite or virus in culture
Procedure: as §1, §2, §3, §7, §8, §9, §10, §5, §6

[6] = test system: MRSA 3: MRSA DM21455 (eye); assay: microbe, parasite or virus in culture
Procedure: as §1, §2, §3, §7, §8, §9, §10, §5, §6

[7] = Lipid II TLC binding assay; details: peptide : lipid II 2 : 1; 50 mM Tris/HCl, pH 7.5, 30 min, room temperature; three independent experiments
Procedure: X. Complex formation of teixobactin with lipid II and geranyl pyrophosphate Complex formation of teixobactin analogues 8 (Ala10-teixobactin) and 16 (Arg10-teixobactin) with lipid II and geranyl pyrophosphate was performed using TLC as described previously.7 Binding of teixobactin to lipid II and geranyl pyrophosphate was analysed by incubating 30 µL of 2 nmol of each precursor with 2 or 4 nmoles of teixobactin in 50 mM Tris/HCl, pH 7.5, for 30 min at room temperature. Complex formation was analysed by extracting unbound precursors from the reaction mixture with 30 µL n- butanol/6M pyridine acetate (pH 4.2) (2:1; vol/vol) followed by TLC analysis of the organic layer using chloroform/methanol/water/ammonia (88:48:10:1, v/v/v/v) as the solvent and detection of lipid/phosphate containing precursors by phosphomolybdic acid staining. The TLC figures represent the results obtained through thr ee independent experiments.
Figure S76 : Binding of teixobactin analogues 8 (Ala10-teixobactin ) and 16 (Arg10-teixobactin) with lipid II using the protocols described in literature .7 Partial binding is observed when the ratio of lipid II to the analogue is 1:1 (indicated by lighter spots on the TLC) and complete binding is observed when the ratio of lipid II to the analogue is 1:2 in case of analogue 16 and 1:4 in case of analogue 8 (indicated […]
(also on this page, place not known: polyso rbate vancomycin , concentr ation 80 . wer e µ l (10 1-105 10 10 previously n - TL C three S76: (Ala10-teixobactin) literature.7 Lipid II Lipid II: Compound 8 = 1:1 Lipid II: Compound 16 = 1:1 Lipid II: Compound 8 = 1:2 Lipid II: Compound 16 = 1:2 Lipid II: Compound 8 = 1:4)

[8] = test system: MRSA ATCC 33591; assay: microbe, parasite or virus in culture; details: ATCC 33591, 24 h
[9] = test system: VRE 2: VRE ATCC 29212; assay: organism not typed
Procedure: as §1, §2, §3, §4, §5, §6

[10] = test system: VRE 1: VRE ATCC 700802; assay: organism not typed
Procedure: as §1, §2, §3, §4, §5, §6

[11] = NMR titration with geranyl pyrophosphate (lipid II mimic); assay type: binding
Procedure: In order to evaluate target binding, we have performed the lipid II TLC binding assay[2] with Ala10-teixobactin. This assay provides qualitative binding data of Ala10-teixobactin with lipid II. […] Therefore, in order better understand the target binding of teixobactin analogues in a quantitative manner, extensive NMR studies (Fig. 6) on Ala10-teixobactin and geranyl pyrophosphate were performed.
This can occur due to intermediate exchange on the NMR time-scale, and therefore cooperative binding is not an obvious choice.

[12] = test system: rabbit erythrocytes; assay type: cell-based; details: rabbit erythrocytes 4% v/v; peptides 0.195 – 250 µg/ml; 37°C, 1 h; haemoglobin release spectrophotometrically; average of triplicate experiments
Procedure: Fig. 5 Hemolytic activity of teixobactin analogues 12 and 13 for rabbit erythrocytes. The blood cells were exposed to various concentrations of peptides for 1 h and the release of haemoglobin was determined spectrophotometrically. Each value represents an average of triplicate experiments.
Cytotoxicity assay by Formazan bioreduction
Medium (DMEM) supplemented with 10% serum. The cells were repeatedly rinsed with Hank’s
in HBSS 24 hrs post-seeding.
were incubated for 3 hrs at 37°C.
XII. Haemolytic Assay Protocol
Hemolytic assay was performed

Which results are given for `CC[C@H](C)[C@H](NC(=O)[C@@H](Cc1ccccc1)NC)C(=O)N[C@@H](CO)C(=O)N[C@H](CCC(N)=O)C(=O)N[C@@H](C(=O)N[C@H](C(=O)N[C@@H](CO)C(=O)N[C@H]1C(=O)N[C@@H](C)C(=O)N[C@@H](C)C(=O)N[C@@H]([C@@H](C)CC)C(=O)O[C@H]1C)[C@@H](C)CC)[C@@H](C)CC` [Compound 8, Ala10-teixobactin] (H-[dNMeF]IS[dQ][d(aIle)]IS[dT]AAI; ester 8-C)?
MIC ([1]; 2: DR 42412 (sputum, 24 h)): 1 μg mL^–1; MIC (without polysorbate 80) ([1]; 2: DR 42412 (sputum, 24 h)): 4 µg/mL (≈ 3.45 µM); MBC ([1]; MRSA 2 (MRSA DR 42412), plated on MHA, 37 °C, 24 h): 4 μg mL^–1; MIC (with polysorbate 80) ([1]; MRSA 2, MHB containing polysorbate 80 (0.002%, v/v), 37 °C, 24 h): 1 µg/mL (≈ 0.863 µM); aggregation in presence of geranyl pyrophosphate (diffusion coefficient) [2]: no aggregation occurred; MIC [3]: 1–2 μg mL^–1; MIC ([4]; ATCC 700699, 24 h): 4 μg mL^–1; MIC (without polysorbate 80) ([4]; ATCC 700699, 24 h): 8 µg/mL (≈ 6.9 µM); MBC ([4]; MRSA 1 (MRSA ATCC 700699), plated on MHA, 37 °C, 24 h): 16 μg mL^–1; MIC (with polysorbate 80) ([4]; MRSA 1, MHB containing polysorbate 80 (0.002%, v/v), 37 °C, 24 h, two independent duplicates): 4 µg/mL (≈ 3.45 µM); MIC (without polysorbate 80) ([5]; ATCC 29213, 24 h): 4 µg/mL (≈ 3.45 µM); MIC (with polysorbate 80) ([5]; S. aureus ATCC 29213, MHB containing polysorbate 80 (0.002%, v/v), 37 °C, 24 h): 1 µg/mL (≈ 0.863 µM); MBC ([5]; Staphylococcus aureus ATCC 29213, plated on MHA, 37 °C, 24 h): 2 μg mL^–1; MIC ([6]; 3: DM21455 (eye, 24 h)): 1 μg mL^–1; MIC (without polysorbate 80) ([6]; 3: DM21455 (eye, 24 h)): 4 µg/mL (≈ 3.45 µM); MBC ([6]; MRSA 3 (MRSA DM21455), plated on MHA, 37 °C, 24 h): 2 μg mL^–1; MIC (with polysorbate 80) ([6]; MRSA 3, MHB containing polysorbate 80 (0.002%, v/v), 37 °C, 24 h): 1 µg/mL (≈ 0.863 µM); lipid II spot on TLC [7]: a small amount of lipid II was still visible on TLC; MIC [8]: 1–2 μg mL^–1; MIC ([9]; ATCC 29212, 24 h): 4 μg mL^–1; MIC (without polysorbate 80) ([9]; ATCC 29212, 24 h): 8 µg/mL (≈ 6.9 µM); MIC (with polysorbate 80) ([9]; VRE 2, MHB containing polysorbate 80 (0.002%, v/v), 37 °C, 24 h): 4 µg/mL (≈ 3.45 µM); MIC ([10]; ATCC 700802, 24 h): 4 μg mL^–1; MIC (without polysorbate 80) ([10]; ATCC 700802, 24 h): 8 µg/mL (≈ 6.9 µM); MIC (with polysorbate 80) ([10]; VRE 1, MHB containing polysorbate 80 (0.002%, v/v), 37 °C, 24 h): 4 µg/mL (≈ 3.45 µM); Kd ([11]; 2 Ile Hα, NMR titration of geranyl pyrophosphate): 348 ± 18 µM; Kd ([11]; 3 Ser Hα, NMR titration of geranyl pyrophosphate): 503 ± 8 µM; Kd ([11]; 4 D-Gln Hα, NMR titration of geranyl pyrophosphate): 507 ± 2 µM; Kd ([11]; 5 D-Ile Hα, NMR titration of geranyl pyrophosphate): 483 ± 4 µM; Kd ([11]; 7 Ser Hα, NMR titration of geranyl pyrophosphate): 125 ± 3 µM; Kd ([11]; 8 D-Thr Hα, NMR titration of geranyl pyrophosphate): 204 ± 3 µM; Kd ([11]; 9 Ala Hα, NMR titration of geranyl pyrophosphate): 394 ± 4 µM; Kd ([11]; 10 Ala Hα, NMR titration of geranyl pyrophosphate): 314 ± 3 µM; Kd ([11]; 11 Ile Hα, NMR titration of geranyl pyrophosphate): 391 ± 4 µM; Kd ([11]; Net (Total), overall binding by PCA): 138 ± 5 µM

Which haemolytic activity [12] does the source give for melittin here?
The haemolytic activity was “substantial haemolytic activity”.
